Source: patent publication US9969710B2, “Heteroaryl compounds as IRAK inhibitors and uses thereof” (Merck Patent GmbH, priority 2015, dated 2018)

Key:
[1] = test system: TLR7 induced IL-6 secretion in human mononuclear cells (PBMC's); experiment: TLR7 induced IL-6 in human PBMC's; format: cell-based; settings: TLR7 specific ligand 2 uM overnight, IL-6 AlphaLISA
Method: TLR7 Induced IL-6 in Human PBMC's
Human PBMC assay was used as one of the functional assaya to monitor the activity of IRAK1 and IRAK4 small molecule inhibitors on TLR7 induced IL-6 secretion in human mononuclear cells (PBMC's). Human PBMCs were prepared from buffy coats (whole blood enriched with leukocytes and platelets) obtained from healthy volunteers used either fresh or frozen are plated in assay media (RPMI+2% P/S/L-glu+10% HI-FBS) and pre-treated with compounds in DMSO/media (range of concentrations from 25 uM to 0.4 nM) or controls (0.25% DMSO) for 30 minutes at 37° C. in assay media. Following pre-treatment with IRAK1 and IRAK4 inhibitors, PBMC's were stimulated with TLR7 specific ligand (2 uM) overnight (16-18 hrs) at 37° C. After incubation supernatant was transferred to 384 well PE AlphaPlate-384 (6005350) and IL-6 is quantified using Perkin Elmer IL-6 Alpha LISA kit (AL223C). Plates were read on an Envision® plate reader with Alpha Technology®.

IRAK1 = biological target: T1, IRAK1 (Homo sapiens, UniProt P51617); experiment: IRAK1 enzymatic assay (ADP-Glo luminescence); format: biochemical; settings: human recombinant His-TEV-IRAK1 (194-712), ATP 1 μM; read-out: IRAK 1 IC50
T1 construct: His-TEV-IRAK1 (194-712); His (N); TEV cleavage site (N)
Method: IRAK1 is a human purified recombinant enzyme (His-TEV-IRAK1 (194-712))
In this assay, IRAK1 hydrolyses ATP and autophosphorylates. Measurement of IRAK-1 inhibition is performed in 384-well format based on luminescence assay (ADP-Glo™ Kinase Assay from Promega). Purified human recombinant IRAK1 ([…]) and serial diluted compounds in DMSO (range of concentration from 10 μM to 0.5 nM) or controls (1% DMSO) are incubated for 15 minutes at RT in assay buffer containing 50 mM Hepes pH 7.0, Fatty acid-free BSA 0.1%, Dithiothreitol (DTT) 2 mM, MgCl2 10 mM, EGTA 0.5 mM, Triton X-100 0.01%. The kinase reaction is then initiated by the addition of ATP at a concentration of 1 μM. After 2 hours of incubation at RT, the reaction is stopped and the unconsumed ATP depleted by the addition of ADP-Glo™ Reagent according to supplier instructions. After 40 minutes of incubation at RT, the Kinase Detection Reagent is then added to the assay plate according to supplier instructions. After 20 minutes of incubation at RT, the luminescence signal is measured with a luminometer (PerkinElmer Envision or equivalent reader).

IRAK4 = biological target: T2, IRAK4 (Homo sapiens, UniProt Q9NWZ3); experiment: IRAK4 enzymatic assay (ADP-Glo luminescence); format: biochemical; settings: human recombinant His-TEV-IRAK4 (1-460), STK1-biotin peptide substrate
T2 construct: His-TEV-IRAK4 (1-460); His (N); TEV cleavage site (N)
T2 sequence (Q9NWZ3 1-460): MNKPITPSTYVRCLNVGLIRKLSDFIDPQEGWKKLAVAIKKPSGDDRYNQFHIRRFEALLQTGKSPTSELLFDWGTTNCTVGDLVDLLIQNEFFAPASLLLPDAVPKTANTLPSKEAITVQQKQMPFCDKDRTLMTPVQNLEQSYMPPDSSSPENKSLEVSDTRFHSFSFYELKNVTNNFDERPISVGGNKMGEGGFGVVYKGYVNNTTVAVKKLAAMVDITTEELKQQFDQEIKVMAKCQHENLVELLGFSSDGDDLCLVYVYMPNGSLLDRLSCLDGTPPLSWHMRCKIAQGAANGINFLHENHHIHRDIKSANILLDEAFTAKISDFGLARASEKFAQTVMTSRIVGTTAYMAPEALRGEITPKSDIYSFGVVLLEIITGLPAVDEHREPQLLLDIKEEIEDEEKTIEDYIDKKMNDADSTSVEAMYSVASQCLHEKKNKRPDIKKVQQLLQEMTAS
Method: IRAK4 is a human purified recombinant enzyme (His-TEV-IRAK4 (1-460)).
In this assay, IRAK4 hydrolyses ATP, autophosphorylates and phosphorylates a Serine/Threonine generic peptidic substrate (STK: 61ST1BLC from CisBio International). Measurement of IRAK-4 inhibition is performed in 384-well format based on a luminescence assay (ADP-Glo™ Kinase Assay from Promega). Purified human recombinant IRAK4 ([…]) and serial diluted compounds in DMSO (range of concentration from 10 μM to 0.5 nM) or controls (1% DMSO) are incubated for 15 minutes at RT in assay buffer containing 50 mM Hepes pH 7.0, Fatty acid-free BSA 0.1%, Dithiothreitol (DTT) 2 mM, MgCl2 10 mM, EGTA 0.5 mM, Triton X-100 0.01%, MnCl2 5 mM. The kinase reaction is then initiated by the addition of ATP ([…]) and the peptidic substrate STK1-biotin peptide (300 nM). After 2 hours of incubation at RT, the reaction is stopped and the unconsumed ATP depleted by the addition of ADP-Glo™ Reagent according to supplier instructions. After 40 minutes of incubation at RT, the Kinase Detection Reagent is then added to the assay plate according to supplier instructions. After 20 minutes of incubation at RT, the luminescence signal is measured with a plate-reading luminometer (PerkinElmer Envision or equivalent reader).

T1 sequence (P51617 194-712): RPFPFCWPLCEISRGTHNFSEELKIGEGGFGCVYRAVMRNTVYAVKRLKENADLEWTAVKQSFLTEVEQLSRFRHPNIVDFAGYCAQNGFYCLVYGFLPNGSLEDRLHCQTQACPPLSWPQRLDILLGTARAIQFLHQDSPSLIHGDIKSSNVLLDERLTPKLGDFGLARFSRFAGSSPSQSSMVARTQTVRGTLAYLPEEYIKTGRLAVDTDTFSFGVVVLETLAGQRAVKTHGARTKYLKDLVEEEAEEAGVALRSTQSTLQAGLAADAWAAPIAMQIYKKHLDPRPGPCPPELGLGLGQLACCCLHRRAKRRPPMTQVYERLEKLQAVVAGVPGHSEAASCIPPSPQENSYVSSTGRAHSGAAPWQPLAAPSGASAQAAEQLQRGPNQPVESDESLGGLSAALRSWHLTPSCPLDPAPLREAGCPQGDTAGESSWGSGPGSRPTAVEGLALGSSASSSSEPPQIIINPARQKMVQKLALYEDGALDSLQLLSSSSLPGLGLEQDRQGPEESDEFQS

Row | SMILES | IC50 ([1]; Homo sapiens, PBMC) | melting point | IC50 (IRAK1) | IC50 (IRAK4) | IC50 [1]
1 | CN1CC(c2ccc3c(c2)nc(NC(=O)c2cccc(C(F)F)c2)n3CCCO)C(C)(C)C1=O (centres unmarked) [Compound 27, 3-Difluoromethyl-N-[1-(3-hydroxy-propyl)-5-(1,4,4-trimethyl-5-oxo-pyrrolidin-3-yl)-1H-benzoimidazol-2-yl]-benzamide] | 0.1 to 1 µM | 95 to 96 °C | 0.1 to 1 µM | ≤ 0.1 µM | 
2 | CN1CC(c2ccc3c(c2)nc(NC(=O)c2cccc(C(F)(F)F)c2)n3CCCO)C(C)(C)C1=O (centres unmarked) [Compound 25, N-[1-(3-Hydroxy-propyl)-5-(1,4,4-trimethyl-5-oxo-pyrrolidin-3-yl)-1H-benzoimidazol-2-yl]-3-trifluoromethyl-benzamide] | 0.1 to 1 µM | 104 to 106 °C | ≤ 0.1 µM | ≤ 0.1 µM | 
3 | CN1CCC(C)(c2ccc3c(c2)nc(NC(=O)c2cccc(C(F)(F)F)c2)n3CCCO)C1=O (centres unmarked) [Compound 29, N-[5-(1,3-Dimethyl-2-oxo-pyrrolidin-3-yl)-1-(3-hydroxy-propyl)-1H-benzoimidazol-2-yl]-3-trifluoromethyl-benzamide] |  | 72 to 74 °C | 1 to 10 µM | ≤ 0.1 µM | 
4 | CN1CCC(C)(c2ccc3c(c2)nc(NC(=O)c2cccc(C(F)F)c2)n3CCCO)C1=O (centres unmarked) [Compound 30, 3-Difluoromethyl-N-[5-(1,3-dimethyl-2-oxo-pyrrolidin-3-yl)-1-(3-hydroxy-propyl)-1H-benzoimidazol-2-yl]-benzamide] | 1 to 10 µM | 78 to 81 °C |  | ≤ 0.1 µM | 
5 | CC(=O)N1CCC(c2ccc3c(c2)[nH]/c(=N\C(=O)c2cccc(C(F)(F)F)c2)n3CCCO)CC1 [Compound 13, (E)-N-(5-(1-acetylpiperidin-4-yl)-1-(3-hydroxypropyl)-1H-benzo[d]imidazol-2(3H)-ylidene)-3-(trifluoromethyl)benzamide] | 0.1 to 1 µM |  | ≤ 0.1 µM | ≤ 0.1 µM | 
6 | C=CCCn1/c(=N/C(=O)c2cccc(C(F)(F)F)c2)[nH]c2cc(C3CCCN(C)C3=O)ccc21 (centres unmarked) [Compound 18, N-[1-But-3-enyl-5-(1-methyl-2-oxo-piperidin-3-yl)-1,3-dihydro-benzoimidazol-(2E)-ylidene]-3-trifluoromethyl-benzamide] | 0.1 to 1 µM |  | 0.1 to 1 µM | ≤ 0.1 µM | 
7 | CN1CCC(c2ccc3c(c2)[nH]/c(=N\C(=O)c2cccc(C(F)(F)F)c2)n3CCC(O)CO)C1=O (centres unmarked) [Compound 21, N-[1-(3,4-Dihydroxy-butyl)-5-(1-methyl-2-oxo-pyrrolidin-3-yl)-1,3-dihydro-benzoimidazol-(2E)-ylidene]-3-trifluoromethyl-benzamide] | ≤ 0.1 µM |  | 0.1 to 1 µM | ≤ 0.1 µM | 
8 | CN1C[C@H](c2ccc3c(c2)nc(NC(=O)c2cccc(C(F)(F)F)c2)n3CCCO)C(C)(C)C1=O [Compound 25b, N-[1-(3-hydroxypropyl)-5-[(3R)-1,4,4-trimethyl-5-oxopyrrolidin-3-yl]-1H-1,3-benzodiazol-2-yl]-3-(trifluoromethyl)benzamide] | 0.1 to 1 µM |  | 0.1 to 1 µM | ≤ 0.1 µM | 
9 | CN1CCC(c2ccc3c(c2)[nH]/c(=N\C(=O)c2cccc(C(F)(F)F)c2)n3CC(O)CO)C1=O (single isomer, unassigned) [Compound 20a] |  |  | 0.1 to 1 µM | ≤ 0.1 µM | 0.1 to 1 µM
10 | O=C(/N=c1\[nH]c2cc(C3CCCN(CC4CC4)C3=O)ccc2n1CCCO)c1cccc(C(F)(F)F)c1 (centres unmarked) [Compound 7, (E)-N-(5-(1-(cyclopropylmethyl)-2-oxopiperidin-3-yl)-1-(3-hydroxypropyl)-1H-benzo[d]imidazol-2(3H)-ylidene)-3-(trifluoromethyl)benzamide] | 0.1 to 1 µM |  | 0.1 to 1 µM | ≤ 0.1 µM | 
11 | CN1C(=O)CCC1(C)c1ccc2c(c1)nc(NC(=O)c1cccc(C(F)F)c1)n2CCCO (centres unmarked) [Compound 31, 3-Difluoromethyl-N-[5-(1,2-dimethyl-5-oxo-pyrrolidin-2-yl)-1-(3-hydroxy-propyl)-1H-benzoimidazol-2-yl]-benzamide] | 1 to 10 µM |  | 0.1 to 1 µM | ≤ 0.1 µM | 
12 | CN1CCC(c2ccc3c(c2)[nH]/c(=N\C(=O)c2cccc(C(F)(F)F)c2)n3CCC(O)CO)C1=O (single isomer, unassigned) [Compound 21a] | 0.1 to 1 µM |  | 0.1 to 1 µM | ≤ 0.1 µM | 
13 | CN1C(=O)CCC1(C)c1ccc2c(c1)nc(NC(=O)c1cccc(C(F)(F)F)c1)n2CCCO (single isomer, unassigned) [Compound 32b] |  |  | 0.1 to 1 µM | ≤ 0.1 µM | 1 to 10 µM
14 | CN1CCC[C@H](c2ccc3c(c2)[nH]/c(=N\C(=O)c2cccc(C(F)F)c2)n3C[C@@](C)(F)CO)C1=O [Compound 3a, 3-(difluoromethyl)-N-[(2E)-1-[(2R)-2-fluoro-3-hydroxy-2-methylpropyl]-5-[(3R)-1-methyl-2-oxopiperidin-3-yl]-2,3-dihydro-1H-1,3-benzodiazol-2-ylidene]benzamide] | 0.1 to 1 µM |  | 1 to 10 µM | ≤ 0.1 µM | 
15 | CN1CCC(c2ccc3c(c2)[nH]/c(=N\C(=O)c2cccc(C(F)(F)F)c2)n3CCC(O)CO)C1=O (single isomer, unassigned) [Compound 21b] |  |  | 0.1 to 1 µM | ≤ 0.1 µM | 0.1 to 1 µM
16 | CN1CCC[C@@H](c2ccc3c(c2)[nH]/c(=N\C(=O)c2cccc(C(F)F)c2)n3C[C@](C)(F)CO)C1=O (single isomer, unassigned) [Compound 3b] | 0.1 to 1 µM |  | 1 to 10 µM | ≤ 0.1 µM | 
17 | CN1CC(c2ccc3c(c2)[nH]/c(=N\C(=O)c2cccc(C(F)(F)F)c2)n3CCCO)CC1=O (centres unmarked) [Compound 10, (E)-N-(1-(3-hydroxypropyl)-5-(1-methyl-5-oxopyrrolidin-3-yl)-1H-benzo[d]imidazol-2(3H)-ylidene)-3-(trifluoromethyl)benzamide] | 0.1 to 1 µM |  | 0.1 to 1 µM | ≤ 0.1 µM | 
18 | CC(=O)N1CCCC(c2ccc3c(c2)[nH]/c(=N\C(=O)c2cccc(C(F)(F)F)c2)n3CCCO)C1 (centres unmarked) [Compound 14, (E)-N-(5-(1-acetylpiperidin-3-yl)-1-(3-hydroxypropyl)-1H-benzo[d]imidazol-2(3H)-ylidene)-3-(trifluoromethyl)benzamide] | ≤ 0.1 µM |  | ≤ 0.1 µM | ≤ 0.1 µM | 
